The nature of series [1]: Cyclization equilibrium, ratio of [cyclic]:[open] forms. The format is physicochemical. Conditions: at equilibrium at pH 7.0. The text has this: In this example, Xaa-boro-Ala analogs containing bulky R substituent will be constructed to prevent cyclization and increase biological activity. […] The open, active, inhibitory chain species is favored at low pH while the cyclized structure is favored at high pH. Also, the reaction is fully reversible: the open chain becomes predominate at low pH. The open chain to cyclic species reaction involves a trans to cis isomerization of the proline and the formation of a new N—B bond. […] This means that less than 1% Pro-boroPro and less than 0.1% of Val-boroPro exists as the open chain, inhibitory species, at equilibrium at pH 7.0.
One feature of the present invention relates to the equilibrium constant for cyclization. […] In addition, the cis-trans isomerization rate, and therefore the rates of cyclization and uncyclization, are also much faster for compounds of the present invention. This feature is attributed by the inventors to a bulky substituent effect, e.g. where R in FIG. 8 represents a cyclohexyl.

For series [2] the following is noted: pH around neutral, due to cyclization, inventors' previous work; cited from earlier work.
Series [3] deals with soluble DPIV (Homo sapiens, UniProt P27487). Conditions: inventors' previous work; cited from earlier work.
Series [4] relates to zucker obese rats. In words: Oral glucose tolerance test (oral glucose challenge) in zucker rats. The format is in vivo, rat. Conditions: oral 0.035 mg/kg or 0.35 mg/kg, oral glucose tolerance test within an hour, saline control. Here is the method: In these “acute” experiments zucker obese and zucker lean rats were orally administered either 0.035 mg/kg (low dose) or 0.35 mg/kg (high dose) of cyclohexyl-gly boro ala and then subjected to an oral glucose tolerance test within an hour. Each set of experiments was also performed using saline as a control.

The target in series [5] is T1, DPPIV (Rattus norvegicus, UniProt P14740).
T1 construct: from tissue; host or cells: rat serum
In words: DPPIV assays on serum samples from treated rats. The format is in vivo. Conditions: 1 hour after treatment versus before. The method, then: Four rats were used in this experiment: two females (#3 and #9) and two males (#10 and #11). Blood and plasma samples were collected from rats 1 hour after being treated with Cyclohexylglycine-boroAla. The collected serum samples were evaluated for DPPIV activity of Cyclohexylglycine-boroAla as follows: • 2 mg of Ala-Pro-paranitroanalide (substrate) was dissolved in 20 ml 0.1 M HEPES pH 8, 0.14 M NaCl (buffer). • Serum samples were diluted into substrate solution in the wells of a microtiter plate. For each sample, 10 uL of serum was diluted into 150 μL of substrate. • A reading of the A410 in each well was recorded immediately after the dilution of serum into substrate, and again after approximately 1 hour. The time of data acquisition for each reading is recorded in the data file by the microplate reader software.
The rate of absorbance change was obtained by subtracting the first reading from the second and dividing by the reaction time to give DeltaA410/hr. The DPPIV activity was plotted in units of DeltaA410 hr^−1 μL^−1.

The target in series [6] is DPPIV (Homo sapiens, UniProt P27487). In words: Inhibitor inactivation at pH 8 (time course, DPPIV inhibition read-out). The format is biochemical. Conditions: pre-incubated at pH 8 (7.5-8) for 0, 60, 120, 180 minutes; compared with His-bAla, Ala-bAla, Phg-bAla. Here is the method:
In this experiment stock solutions of inhibitors (His-bAla, Ala-bAla, Phg-bAla and Cyclohexylglycine-bAla) were prepared at pH 1-2. These stock solutions were pre-incubated at pH 8 as follows: first, 1:10 dilutions into a buffer (0.1 M HEPES pH 8, 0.14 M NaCl) were performed; secondly, the pH was measured after dilution and varied for different inhibitors between 7.5 and 8; and thirdly, incubations at this pH were performed for 0, 60, 120, 180 minutes. Following incubation, 1:10 serial dilutions of inhibitors in buffer and 1:10 dilution of inhibitors into Enzyme (DPPIV) in buffer were made. The inhibitors were pre-incubated with enzyme for 10 minutes to account for slow binding and substrate (H-Ala-Pro-paranitoranalide) was added at a concentration of approx.=KM (17 μM). Absorbances at 410 nm were recorded for all inhibitors after 30 minutes.

DPPIV (Homo sapiens, UniProt P27487), sequence (P27487 whole entry, species assumed): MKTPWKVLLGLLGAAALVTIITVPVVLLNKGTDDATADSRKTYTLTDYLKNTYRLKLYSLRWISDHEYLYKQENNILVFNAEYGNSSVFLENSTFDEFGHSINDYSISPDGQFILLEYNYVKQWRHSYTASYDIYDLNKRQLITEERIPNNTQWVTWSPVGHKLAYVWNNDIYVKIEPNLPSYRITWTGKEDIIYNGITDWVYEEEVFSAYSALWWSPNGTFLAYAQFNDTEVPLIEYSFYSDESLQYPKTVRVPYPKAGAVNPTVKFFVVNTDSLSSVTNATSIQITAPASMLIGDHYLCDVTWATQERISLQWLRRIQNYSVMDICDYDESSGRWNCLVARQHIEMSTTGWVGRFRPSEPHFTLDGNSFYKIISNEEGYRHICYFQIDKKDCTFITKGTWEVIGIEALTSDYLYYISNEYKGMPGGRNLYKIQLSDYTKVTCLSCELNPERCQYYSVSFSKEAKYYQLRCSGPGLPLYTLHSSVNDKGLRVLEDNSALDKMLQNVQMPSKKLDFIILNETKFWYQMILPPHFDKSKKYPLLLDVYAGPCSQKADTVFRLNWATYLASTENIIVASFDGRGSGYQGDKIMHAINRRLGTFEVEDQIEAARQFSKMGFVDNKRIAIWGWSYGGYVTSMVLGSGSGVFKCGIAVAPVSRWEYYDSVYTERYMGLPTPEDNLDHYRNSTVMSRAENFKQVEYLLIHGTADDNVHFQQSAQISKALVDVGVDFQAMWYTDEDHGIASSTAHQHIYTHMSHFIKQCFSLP
T1 sequence (P14740 37-767 limits assumed): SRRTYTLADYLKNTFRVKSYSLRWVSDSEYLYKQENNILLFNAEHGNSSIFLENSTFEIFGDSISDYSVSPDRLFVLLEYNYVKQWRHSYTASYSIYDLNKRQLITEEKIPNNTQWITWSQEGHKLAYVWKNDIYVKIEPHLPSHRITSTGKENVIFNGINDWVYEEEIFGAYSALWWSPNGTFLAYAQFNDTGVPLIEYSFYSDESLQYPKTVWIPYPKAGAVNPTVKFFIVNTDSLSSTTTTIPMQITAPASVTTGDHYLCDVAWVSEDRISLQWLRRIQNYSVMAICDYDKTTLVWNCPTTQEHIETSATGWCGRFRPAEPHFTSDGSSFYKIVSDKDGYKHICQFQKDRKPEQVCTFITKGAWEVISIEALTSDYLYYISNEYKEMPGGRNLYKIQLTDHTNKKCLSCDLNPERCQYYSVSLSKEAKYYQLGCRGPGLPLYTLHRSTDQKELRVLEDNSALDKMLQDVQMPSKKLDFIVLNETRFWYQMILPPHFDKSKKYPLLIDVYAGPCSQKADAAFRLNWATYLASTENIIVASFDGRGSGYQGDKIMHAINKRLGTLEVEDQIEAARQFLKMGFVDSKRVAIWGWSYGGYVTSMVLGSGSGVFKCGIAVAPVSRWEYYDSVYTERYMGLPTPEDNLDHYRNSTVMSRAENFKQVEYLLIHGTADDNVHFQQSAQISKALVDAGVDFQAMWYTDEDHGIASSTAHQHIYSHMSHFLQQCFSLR
soluble DPIV, sequence (P27487 39-766 limits assumed): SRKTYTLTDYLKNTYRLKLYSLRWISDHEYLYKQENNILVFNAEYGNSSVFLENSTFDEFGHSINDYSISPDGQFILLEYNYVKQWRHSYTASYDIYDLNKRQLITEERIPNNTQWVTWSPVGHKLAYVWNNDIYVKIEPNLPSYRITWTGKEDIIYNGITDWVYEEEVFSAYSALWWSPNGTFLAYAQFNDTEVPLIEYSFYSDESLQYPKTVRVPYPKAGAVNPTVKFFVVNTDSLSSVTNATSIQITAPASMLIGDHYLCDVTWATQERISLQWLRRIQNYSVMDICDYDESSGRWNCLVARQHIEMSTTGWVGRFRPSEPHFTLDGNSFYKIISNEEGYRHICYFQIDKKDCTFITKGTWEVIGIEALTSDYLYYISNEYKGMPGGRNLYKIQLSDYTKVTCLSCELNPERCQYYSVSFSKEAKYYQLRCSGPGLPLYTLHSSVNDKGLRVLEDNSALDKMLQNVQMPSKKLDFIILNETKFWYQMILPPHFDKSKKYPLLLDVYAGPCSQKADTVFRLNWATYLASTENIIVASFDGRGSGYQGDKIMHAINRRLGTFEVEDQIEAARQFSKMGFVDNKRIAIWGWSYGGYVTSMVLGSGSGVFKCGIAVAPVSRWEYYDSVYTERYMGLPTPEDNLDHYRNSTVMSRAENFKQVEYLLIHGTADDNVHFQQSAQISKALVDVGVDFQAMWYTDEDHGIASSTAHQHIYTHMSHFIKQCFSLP

On to `CC(C)[C@H](N)C(=O)N1CCC[C@H]1B(O)O` [Val-boroPro], for which the “fraction existing as the open chain, inhibitory species” value in series [1] is given as “less than 0.1%”.

In the case of `O=C(C1CCCN1)N1CCCC1B(O)O` (centres unmarked) [Pro-boroPro], the “fraction existing as the open chain, inhibitory species” value in series [1] is “less than 1%”.

In the case of `CC(N)C(=O)N1CCCC1B(O)O` [L-Ala-D,L-boroPro], the “loss of inhibitory activity in aqueous solution” value in series [2] is “lost some of their inhibitory activity rapidly”.

Consider `O=C(C1CCCN1)N1CCCC1B(O)O` [L-Pro-D,L-boroPro], for which the “loss of inhibitory activity in aqueous solution” value in series [2] was “lost some of their inhibitory activity rapidly”. In addition, in series [3], the “inhibition of the catalytic activity of soluble DPIV” value was “potent inhibitors”.

On to `CC(NC(=O)C(N)C1CCCCC1)B(O)O` (centres unmarked) [Cyclohexylglycine-boroAla, Cyclohexylglycine boroAla], for which the “blood sugar in oral glucose challenge after oral administration” value in series [4] was “orally active and clearly lowers blood sugar”. Moreover, in series [5], the “DPPIV enzyme activity in serum” value is given as “significantly decreased”. The “pH-time dependant inhibition (inactivation at pH 8)” value in series [6] is listed as “does not show significant pH-time dependant inhibition”.

Values taken from patent US9757400B2, “Peptidomimetic inhibitors of post-proline cleaving enzymes” (Trustees of Tufts College, priority 2001, dated 2017).
